Target: Sigma non-opioid intracellular receptor 1 (Cavia porcellus, UniProt Q60492)
Sequence (Q60492 whole entry): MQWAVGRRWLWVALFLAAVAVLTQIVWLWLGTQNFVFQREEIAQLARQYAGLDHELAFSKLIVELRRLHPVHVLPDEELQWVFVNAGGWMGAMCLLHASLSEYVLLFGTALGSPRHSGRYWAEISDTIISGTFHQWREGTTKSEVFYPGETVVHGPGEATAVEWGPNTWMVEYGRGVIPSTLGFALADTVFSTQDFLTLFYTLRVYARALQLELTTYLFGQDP

SMILES | Ki [nM]
CN(C)CCCN1c2ccccc2Sc2ccc(C(F)(F)F)cc21 [TRIFLUPROMAZINE] | 605
Clc1cccc(Cl)c1N=C1NCCN1 [2-(2,6-dichloroanilino)-2-imidazoline] | > 10000
CN(C)CCCN1c2ccccc2Sc2ccc(Cl)cc21 [[3-(2-Chloro-phenothiazin-10-yl)-propyl]-dimethyl-amine(Chlorpromazine)] | 1470
CNCCC=C1c2ccccc2CCc2ccccc21 [NORTRIPTYLINE] | 2000
CN(C)CCC=C1c2ccccc2CCc2ccccc21 | 300
CN(C)CCCN1c2ccccc2CCc2ccccc21 | 520
